Reference: US20070185161A1, “Bicyclic substituted indole-derivative steroid hormone nuclear receptor modulators” (priority 2004, published 2007)

Molecular target: T1, human MR (Homo sapiens, UniProt P08235)
T1 construct: The full length human MR gene is cloned from a human kidney or human brain cDNA library; made in house; host or cells: SF9 insect cells (baculovirus)
T1 sequence (P08235 1-984): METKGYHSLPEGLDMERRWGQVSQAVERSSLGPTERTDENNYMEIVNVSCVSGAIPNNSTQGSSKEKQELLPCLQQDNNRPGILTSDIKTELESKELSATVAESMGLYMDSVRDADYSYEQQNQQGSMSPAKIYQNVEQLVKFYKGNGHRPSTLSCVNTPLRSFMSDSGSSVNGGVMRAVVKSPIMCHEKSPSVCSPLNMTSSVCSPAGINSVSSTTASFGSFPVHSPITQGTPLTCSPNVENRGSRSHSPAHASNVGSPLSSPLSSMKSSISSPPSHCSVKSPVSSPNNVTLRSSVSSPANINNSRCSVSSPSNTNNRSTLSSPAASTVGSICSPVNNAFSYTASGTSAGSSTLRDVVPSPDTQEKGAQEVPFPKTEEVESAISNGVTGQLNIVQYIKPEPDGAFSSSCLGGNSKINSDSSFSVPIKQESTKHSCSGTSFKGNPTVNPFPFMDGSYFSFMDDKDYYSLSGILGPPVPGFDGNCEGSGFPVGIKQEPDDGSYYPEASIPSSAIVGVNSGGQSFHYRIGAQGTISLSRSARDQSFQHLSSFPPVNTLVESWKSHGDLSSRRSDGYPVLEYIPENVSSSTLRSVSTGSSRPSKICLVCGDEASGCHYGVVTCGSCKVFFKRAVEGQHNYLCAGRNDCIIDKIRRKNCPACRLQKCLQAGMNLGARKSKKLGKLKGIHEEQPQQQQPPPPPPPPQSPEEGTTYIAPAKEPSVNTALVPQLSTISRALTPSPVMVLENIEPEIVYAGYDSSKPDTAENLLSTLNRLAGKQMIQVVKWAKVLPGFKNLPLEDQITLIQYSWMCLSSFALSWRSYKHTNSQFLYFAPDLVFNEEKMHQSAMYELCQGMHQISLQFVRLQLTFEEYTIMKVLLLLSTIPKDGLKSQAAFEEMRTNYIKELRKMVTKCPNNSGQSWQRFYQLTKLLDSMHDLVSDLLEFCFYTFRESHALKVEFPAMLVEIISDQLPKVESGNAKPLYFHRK
Experiment: Mineralocorticoid Receptor Binding Assay (Method 1)
Conditions: [3H]-aldosterone, racemic mixture unless otherwise indicated
Procedure, shortened: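 Lysate of Sf9 cells expressing baculovirus full-length human MR (20-25 μg protein) incubated with 0.5 nM [3H]-aldosterone and test compound, pH 7.5 molybdate buffer, 16 h at 4 °C. Bound ligand collected by filtration and counted by scintillation. IC50 for displacement; Ki by Cheng-Prusoff.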

Row | SMILES | Ki [nM]
1 | CNCCCC1(c2c[nH]c3c(NS(C)(=O)=O)cccc23)CCc2cc(F)ccc21 (centres unmarked) [Example 42, N-{3-[5-Fluoro-1-(3-methylamino-propyl)-indan-1-yl]-1H-indol-7-yl}-methanesulfonamide] | ≤ 500
2 | CS(=O)(=O)Nc1cccc2c(C3(CCCN4CCOCC4)CCc4cc(F)ccc43)c[nH]c12 (centres unmarked) [Example 44, N-{3-[5-Fluoro-1-(3-morpholin-4-yl-propyl)-indan-1-yl]-1H-indol-7-yl}-methanesulfonamide] | ≤ 500
